ChEMBL document CHEMBL1201862, “PubChem BioAssay data set” (2004)
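Cells were grown in 96-well plates and exposed to each compound for 48 hours at five concentrations; endpoints were interpolated linearly between bracketing concentrations, or set to the highest concentration if not reached. GI50 = concentration required for 50% inhibition of growth.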 The source made the active and inactive calls. Rule as the data show it: active = GI50 up to about 1.1 µM and inactive = higher. Peptide text beside a SMILES is read from it. * marks the point of attachment. Cbz = O=C(OCc1ccccc1)*; Boc = CC(C)(C)OC(=O)*; OBn = c1ccc(CO*)cc1

Columns and labels:
Test in all cases: NCI anticancer screen, dose series, 48 h
RPMI-8226 = tested on: RPMI-8226
MDA-N = tested on: MDA-N
NCI/ADR-RES = tested on: NCI/ADR-RES
MDA-MB-435 = tested on: MDA-MB-435
SF-295 = tested on: SF-295
UO-31 = tested on: UO-31
OVCAR-8 = tested on: OVCAR-8
K562 = tested on: K562
T47D = tested on: T47D
MOLT-4 = tested on: MOLT-4
SN12C = tested on: SN12C
HCT-116 = tested on: HCT-116
HT-29 = tested on: HT-29
OVCAR-3 = tested on: OVCAR-3
A549 = tested on: A549
Hs-578T = tested on: Hs-578T
SR = tested on: SR
CAKI-1 = tested on: CAKI-1
U-251 = tested on: U-251
SK-MEL-28 = tested on: SK-MEL-28
HOP-62 = tested on: HOP-62
EKVX = tested on: EKVX
OVCAR-4 = tested on: OVCAR-4
LOX IMVI = tested on: LOX IMVI
NCI-H460 = tested on: NCI-H460
SK-MEL-5 = tested on: SK-MEL-5
COLO 205 = tested on: COLO 205
Malme-3M = tested on: Malme-3M
HL-60 = tested on: HL-60
786-0 = tested on: 786-0
SF-268 = tested on: SF-268
M14 = tested on: M14
BT-549 = tested on: BT-549
SK-OV-3 = tested on: SK-OV-3
NCI-H226 = tested on: NCI-H226
KM12 = tested on: KM12
MCF7 = tested on: MCF7
SF-539 = tested on: SF-539
HCT-15 = tested on: HCT-15
RXF 393 = tested on: RXF 393
UACC-62 = tested on: UACC-62
IGROV-1 = tested on: IGROV-1
ACHN = tested on: ACHN
PC-3 = tested on: PC-3
TK-10 = tested on: TK-10
A498 = tested on: A498
SNB-19 = tested on: SNB-19
DU-145 = tested on: DU-145
NCI-H522 = tested on: NCI-H522
MDA-MB-231 = tested on: MDA-MB-231
HOP-92 = tested on: HOP-92
SNB-75 = tested on: SNB-75
SW-620 = tested on: SW-620
NCI-H23 = tested on: NCI-H23
OVCAR-5 = tested on: OVCAR-5
CCRF-CEM = tested on: CCRF-CEM
SK-MEL-2 = tested on: SK-MEL-2
UACC-257 = tested on: UACC-257

SMILES: COC(=O)C(CCCCNC(=O)OCc1ccccc1)NC(=O)C(CCC(=O)OCc1ccccc1)NC(=O)OC(C)(C)C (stereo unspecified) (Boc-Glu(OBn)-Lys(Cbz)-OMe; configuration not given here)
- GI50 (RPMI-8226): > 100 µM (inactive)
- GI50 (MDA-N): > 100 µM (inactive)
- GI50 (NCI/ADR-RES): > 100 µM (inactive)
- GI50 (MDA-MB-435): > 100 µM (inactive)
- GI50 (SF-295): 64.4 µM (inactive)
- GI50 (UO-31): > 100 µM (inactive)
- GI50 (OVCAR-8): > 100 µM (inactive)
- GI50 (K562): > 100 µM (inactive)
- GI50 (T47D): > 100 µM (inactive)
- GI50 (MOLT-4): > 100 µM (inactive)
- GI50 (SN12C): > 100 µM (inactive)
- GI50 (HCT-116): > 100 µM (inactive)
- GI50 (HT-29): > 100 µM (inactive)
- GI50 (OVCAR-3): 73.1 µM (inactive)
- GI50 (A549): > 100 µM (inactive)
- GI50 (Hs-578T): 27.7 µM (inactive)
- GI50 (SR): > 100 µM (inactive)
- GI50 (CAKI-1): 86.7 µM (inactive)
- GI50 (U-251): > 100 µM (inactive)
- GI50 (SK-MEL-28): 64 µM (inactive)
- GI50 (HOP-62): 15 µM (inactive)
- GI50 (EKVX): > 100 µM (inactive)
- GI50 (OVCAR-4): 57.3 µM (inactive)
- GI50 (LOX IMVI): > 100 µM (inactive)
- GI50 (NCI-H460): > 10 µM (inactive)
- GI50 (SK-MEL-5): > 100 µM (inactive)
- GI50 (COLO 205): > 100 µM (inactive)
- GI50 (Malme-3M): 54.3 µM (inactive)
- GI50 (HL-60): > 100 µM (inactive)
- GI50 (786-0): > 100 µM (inactive)
- GI50 (SF-268): > 100 µM (inactive)
- GI50 (M14): > 100 µM (inactive)
- GI50 (BT-549): > 100 µM (inactive)
- GI50 (SK-OV-3): 46.6 µM (inactive)
- GI50 (NCI-H226): > 100 µM (inactive)
- GI50 (KM12): > 100 µM (inactive)
- GI50 (MCF7): > 100 µM (inactive)
- GI50 (SF-539): > 100 µM (inactive)
- GI50 (HCT-15): > 100 µM
- GI50 (RXF 393): > 100 µM (inactive)
- GI50 (UACC-62): 43 µM (inactive)
- GI50 (IGROV-1): > 100 µM (inactive)
- GI50 (ACHN): > 100 µM (inactive)
- GI50 (PC-3): > 100 µM (inactive)
- GI50 (TK-10): > 100 µM (inactive)
- GI50 (A498): 16.1 µM (inactive)
- GI50 (SNB-19): 40.2 µM (inactive)
- GI50 (DU-145): > 100 µM (inactive)
- GI50 (NCI-H522): 56.9 µM (inactive)
- GI50 (MDA-MB-231): 73.6 µM (inactive)
- GI50 (HOP-92): > 100 µM (inactive)
- GI50 (SNB-75): > 100 µM (inactive)
- GI50 (SW-620): > 100 µM (inactive)
- GI50 (NCI-H23): > 100 µM (inactive)
- GI50 (OVCAR-5): > 100 µM (inactive)

SMILES: CN(C(=O)Cc1cc(Cl)c(Cl)cc1N=C=S)[C@H]1CCCC[C@@H]1N1CCCC1
- GI50 (RPMI-8226): 7.96 µM (inactive)
- GI50 (MDA-N): 14.8 µM (inactive)
- GI50 (NCI/ADR-RES): 17.8 µM (inactive)
- GI50 (MDA-MB-435): 6.49 µM (inactive)
- GI50 (CCRF-CEM): 2.07 µM (inactive)
- GI50 (SF-295): 16.7 µM (inactive)
- GI50 (UO-31): 15.5 µM (inactive)
- GI50 (OVCAR-8): 14 µM (inactive)
- GI50 (SK-MEL-2): 15.3 µM (inactive)
- GI50 (K562): 2.02 µM (inactive)
- GI50 (T47D): 16.1 µM (inactive)
- GI50 (MOLT-4): 3 µM (inactive)
- GI50 (SN12C): 16.6 µM (inactive)
- GI50 (HCT-116): 8.49 µM (inactive)
- GI50 (HT-29): 5.94 µM (inactive)
- GI50 (OVCAR-3): 15.6 µM (inactive)
- GI50 (A549): 15.4 µM (inactive)
- GI50 (Hs-578T): 15.5 µM (inactive)
- GI50 (SR): 1.64 µM (inactive)
- GI50 (CAKI-1): 15.8 µM (inactive)
- GI50 (U-251): 14.9 µM (inactive)
- GI50 (UACC-257): 14.6 µM (inactive)
- GI50 (SK-MEL-28): 1.39 µM (inactive)
- GI50 (HOP-62): 14.2 µM (inactive)
- GI50 (EKVX): 17.3 µM (inactive)
- GI50 (OVCAR-4): 13.3 µM (inactive)
- GI50 (LOX IMVI): 5.9 µM (inactive)
- GI50 (NCI-H460): 7.36 µM (inactive)
- GI50 (SK-MEL-5): 14 µM (inactive)
- GI50 (COLO 205): 9.73 µM (inactive)
- GI50 (Malme-3M): 17.4 µM (inactive)
- GI50 (HL-60): 10.1 µM (inactive)
- GI50 (786-0): 12.7 µM (inactive)
- GI50 (SF-268): 15.8 µM (inactive)
- GI50 (M14): 15.5 µM (inactive)
- GI50 (BT-549): 15.1 µM (inactive)
- GI50 (SK-OV-3): 18 µM (inactive)
- GI50 (KM12): 14.8 µM (inactive)
- GI50 (MCF7): 13.3 µM (inactive)
- GI50 (SF-539): 23.6 µM (inactive)
- GI50 (HCT-15): 13.6 µM
- GI50 (RXF 393): 4.45 µM (inactive)
- GI50 (UACC-62): 16.4 µM (inactive)
- GI50 (IGROV-1): 13.9 µM (inactive)
- GI50 (ACHN): 15.4 µM (inactive)
- GI50 (PC-3): 13.5 µM (inactive)
- GI50 (TK-10): 10.1 µM (inactive)
- GI50 (A498): 13.5 µM (inactive)
- GI50 (SNB-19): 13.9 µM (inactive)
- GI50 (DU-145): 14.7 µM (inactive)
- GI50 (NCI-H522): 13.1 µM (inactive)
- GI50 (MDA-MB-231): 14.3 µM (inactive)
- GI50 (HOP-92): 9.42 µM (inactive)
- GI50 (SNB-75): 14.6 µM (inactive)
- GI50 (SW-620): 5.47 µM (inactive)
- GI50 (NCI-H23): 15.2 µM (inactive)
- GI50 (OVCAR-5): 16.9 µM (inactive)

SMILES: C[N+]1(CCC(=O)c2ccco2)CC2CCC(CC2)C1 (stereo unspecified)
- GI50 (RPMI-8226): > 100 µM (inactive)
- GI50 (MDA-N): > 100 µM (inactive)
- GI50 (NCI/ADR-RES): > 100 µM (inactive)
- GI50 (MDA-MB-435): > 100 µM (inactive)
- GI50 (SF-295): > 100 µM (inactive)
- GI50 (UO-31): > 100 µM (inactive)
- GI50 (OVCAR-8): > 100 µM (inactive)
- GI50 (SK-MEL-2): > 100 µM (inactive)
- GI50 (K562): > 100 µM (inactive)
- GI50 (T47D): > 100 µM (inactive)
- GI50 (MOLT-4): > 100 µM (inactive)
- GI50 (SN12C): > 100 µM (inactive)
- GI50 (HCT-116): > 100 µM (inactive)
- GI50 (HT-29): > 100 µM (inactive)
- GI50 (OVCAR-3): > 100 µM (inactive)
- GI50 (A549): > 100 µM (inactive)
- GI50 (Hs-578T): > 100 µM (inactive)
- GI50 (SR): > 100 µM (inactive)
- GI50 (CAKI-1): > 100 µM (inactive)
- GI50 (U-251): > 100 µM (inactive)
- GI50 (UACC-257): > 100 µM (inactive)
- GI50 (SK-MEL-28): > 100 µM (inactive)
- GI50 (EKVX): > 100 µM (inactive)
- GI50 (OVCAR-4): > 100 µM (inactive)
- GI50 (LOX IMVI): > 100 µM (inactive)
- GI50 (NCI-H460): > 100 µM (inactive)
- GI50 (SK-MEL-5): > 100 µM (inactive)
- GI50 (COLO 205): > 100 µM (inactive)
- GI50 (Malme-3M): > 100 µM (inactive)
- GI50 (786-0): > 100 µM (inactive)
- GI50 (SF-268): > 100 µM (inactive)
- GI50 (M14): > 100 µM (inactive)
- GI50 (BT-549): > 100 µM (inactive)
- GI50 (NCI-H226): > 100 µM (inactive)
- GI50 (KM12): > 100 µM (inactive)
- GI50 (MCF7): > 100 µM (inactive)
- GI50 (SF-539): > 100 µM (inactive)
- GI50 (HCT-15): > 100 µM
- GI50 (RXF 393): > 100 µM (inactive)
- GI50 (UACC-62): > 100 µM (inactive)
- GI50 (IGROV-1): > 100 µM (inactive)
- GI50 (ACHN): > 100 µM (inactive)
- GI50 (PC-3): > 100 µM (inactive)
- GI50 (TK-10): > 100 µM (inactive)
- GI50 (A498): > 100 µM (inactive)
- GI50 (SNB-19): > 100 µM (inactive)
- GI50 (DU-145): > 100 µM (inactive)
- GI50 (NCI-H522): > 100 µM (inactive)
- GI50 (MDA-MB-231): > 100 µM (inactive)
- GI50 (HOP-92): > 100 µM (inactive)
- GI50 (SNB-75): > 100 µM (inactive)
- GI50 (SW-620): > 100 µM (inactive)
- GI50 (NCI-H23): > 100 µM (inactive)
- GI50 (OVCAR-5): > 100 µM (inactive)
